{"source": "patent US20040147595A1", "about": "“Biofilm degrading or sloughing compositions and methods” (priority 2001, published 2004)", "key": {"[1]": {"tested_on": "las quorum sensing system (lasB-gfp(ASV) Plac-lasR)", "experiment": "pMHLAS lasB-gfp(ASV) reporter in E. coli MT102", "assay_type": "cell-based, Escherichia coli", "conditions": "E. coli MT102 host, data not shown", "procedure": "AHL and furanone bioassay. Strains were grown exponentially in LB or ABt medium supplemented with 0.5% glucose at 30° C., shading at 250 rpm. At an optical density of approximately 0.8. the cultures were diluted and split into subcultures in glass culture flasks. AHLs and furanone 56 were added to appropriate concentrations and the cultures were further incubated at 30° C. under vigorous shaking. Culture samples were retrieved at various time intervals and green fluorescence was measured with a fluorometer (model RF-1501, Shimadzu, Tokyo, Japan) set at an excitation wavelength of 475 nm and emission wavelength of 515 nm. Relative fluorescence was calculated as green fluorescence normalized to 1 ml culture divided by the optical density (OD600 nm.\nInitially, the lasB-gfp(ASV) translational fusion (OdDHL sensor) was thoroughly characterized with respect to its sensitivity and specificity. A culture of E. coli hosting the pMHLAS monitor plasmid was diluted and spilt into several subcultures which were then supplemented with AHLs at concentrations ranging from 0 to 1000 nM. […] When the pMHLAS based reporter system was hosted by PAO-JP2. the OdDHL concentration required for half-maximal activation of the lasB-gfp(ASV) fusion was 8 nM (data not shown). In single copy on the chromosome of PAO-JP2, the OdDHL concentration on required for half-maximal activation of lasB expression was approximately 250 nM (FIG. 2b). Green fluorescent cells were visible by epifluorescence microscopy at a minimal OdDHL concentration of 50 nM (FIG. 2c).\n(§1) Effect of the furanone in a heterologous background. The direct regulation exerted by the las regulon on lasB expression is well described by numerous studies (Gambello & Iglewski, 1991: Pearson et al., 1994; Pearson et al., 1997). Regulatory complexity is added by the observation that the las quorum sensing circuit itself is subject to global regulators (Albus et al., 1997; Whiteley et al., 2000) and that lasB expression is also controlled by other regulators than LasR (Brumlik & Storey, 1992; Pesci et al., 1999; Schictman et al., 1995). It was, therefore, important to rule out that QSI effect, observed is not caused by furanone interaction with high levels of control. Since there is no AHL-based quorum sensing system present in Escherichia coli (Williams et al., 2000), this bacterium provides an unbiased and well-defined genetic background for studying the direct effects of the furanone on the P. aeruginosa las quorum sensing system. We repeated the above-described experiments using E. coli MT102 as a heterologous host for the reporter system. […] This is likely to be attributed to the increased copy number of the reporter plasmid."}, "E. coli MT102": {"tested_on": "E. coli MT102", "experiment": "Growth of E. coli MT102", "assay_type": "cell-based, Escherichia coli", "conditions": "data not shown", "procedure": "as §1"}, "[2]": {"tested_on": "protein synthesis (araC-PBAD-gfp(ASV))", "experiment": "araC-PBAD-gfp(ASV) expression in biofilm, protein synthesis control", "assay_type": "cell-based, Pseudomonas aeruginosa", "conditions": "furanone 56 below 10 μg/ml, 0.2% L-arabinose; data not shown", "procedure": "To determine if the furanone-mediated inhibition of green fluorescence is due to subtle non-specific effects on protein synthesis when the bacteria are growing in a biofilm, we examined expression of green fluorescence in cells harboring the araC-PBAD-gfp(ASV) cassette induced by suboptimal levels of L-arabinose is (0.2%). The cells became green fluorescent within 2 hours after induction."}, "[3]": {"tested_on": "P. aeruginosa PAO1 biofilm", "experiment": "Wild type P. aeruginosa PAO1 flowcell biofilm, lasB-gfp(ASV) reporter and Rfp tag, long term", "assay_type": "cell-based, Pseudomonas aeruginosa", "procedure": "P. aeruginosa biofilms. Biofilms were grown at 30° C. in three-dimensional flow cells (Christensen et al., 1999) with individual channel dimensions of 0.3×4×40 mm supplied With ABt minimal medium supplemented with 2% LB. The flow system was assembled and prepared as described by Christensen et al. (1999). The substratum consisted of a microscope glass coverslip (Knittel 24×50 mm st1, Knittel Glaser, Braunschweig, Germany). Cultures for inoculation of the flow channels were prepared in the following way: P. aeruginosa strains were streaked on LB plates with the appropriate antibiotics and incubated for 24 h at 37° C. From each plate a single colony was used for inoculation of 10 ml ABt with 10% LB. The cultures were grown at, 30° C. for 18 h before they were diluted to an OD600 nm of 0.1 in sterile 0.9% NaCl and used for inoculation of the flow channels. Medium flow was kept at a constant rate of 3 mL/h, equivalent to a mean flow velocity of 0.7 mm/s, using a Watson-Marlow 205S peristaltic pump (Watson-Marlow, Falmouth, England). Biofilms were grown for 24 hours before being shifted to media containing AHL and furanone.\nScanning confocal laser microscopy (SCLM). Microscopic inspection and image acquisition were performed an a scanning confocal laser microscope (model TCS4D, Leica Lasertechnik GmbH, Heldelberg, Germany) equipped with a 63×/1.32-0.6 oil objective. The microscope was equipped with a motorized and programmable xy-stage, which was used for monitoring single colonies during the biofilm experiments. At the beginning of each online experiment, the microscope was programmed to track single randomly selected microcolonies; the sensitivity of photo multipliers and the laser intensity were adjusted and thereafter kept constant through out the duration of the experiments. Image scanning was carried out using the 488 nm and 568 nm lines of an Ar/Kr laser for detection of Gfp and Rfp, respectively. Visualization of captured images was performed using the IMARIS software package (Bitplane AG, Zúrich, Switzerland) running on a Silicon Graphics Indigo 2 workstation (Silicon Graphics, Mountain View, Calif. USA).\nFuranone 66 represses lasB-expression in wild type P. aeruginosa biofilms. Wild type P. aeruginosa (PAO1) carrying a chromosomally integrated lasB-gfp(ASV) reporter system was grown in flowcells similar to the PAO-JP2-based reporter strain. We focused on studying the effect of furanone 56 in loan term biofilm experiments. In favor of this approach is the observation by Davies et al. (1998) that quorum sensing is involved in maturation of P. aeruginosa biofilms (up to 2 weeks old). In order to support such longterm cultivation, the biofilm medium was modified to contain 0.3 mM glucose instead of 2% LB as a carbon source. In addition, the recently available Red Fluorescent Protein (Rfp) derived from the indopacific sea anemone Discosome was employed to provide a red fluorescent tag on the biofilm bacteria. A mini-Tn5 transposon with the dsred gene under control of the strong constitutive lac promoter was inserted into the chromosome of PAO1 containing the lasB reporter system.\nThe dual-labeled PAO1 strain was inoculated A grown in flowcells in the absence and presence of 5 μg/ml furanone 56. The flowcells were inspected daily for ten days and scanning confocal photomicrographs were captured (FIG. 6 & 7). For clarity, the green and red fluorescent signals from the same area of the biofilm are shown separately. Because the cells constitutively express Rfp, the red color correlates with cell mass, whereas the green fluorescence indicates active transcription of the lasB-gfp(ASV) reporter gene in response to on-going bacterial communication."}}, "data": [{"smiles": "O=C1C=C/C(=C/Br)O1", "note": "[furanone 56]", "values": [{"measurement": "QSI activity / lasB promoter activity in heterologous E. coli background", "setting": "[1]", "value": "repressed lasB promoter activity"}, {"measurement": "QSI activity / lasB promoter activity in heterologous E. coli background", "setting": "[1]; listed as furanone", "value": "observed"}, {"measurement": "effect on growth", "setting": "E. coli MT102", "value": "no effect on growth"}, {"measurement": "effect on Gfp-expression", "setting": "[2]", "value": "no effect on Gfp-expression"}, {"measurement": "reporter system in biofilms", "setting": "[3]; 5 μg/ml furanone 56", "value": "partially shut down"}, {"measurement": "complete inhibition of the lasB-gfp(ASV) reporter in all biofilm bacteria", "setting": "[3]; concentrations with no effect on growth (<10 μg/ml)", "value": "not achievable"}, {"measurement": "bacterial signaling (green fluorescence)", "setting": "[3]; day 1, 5 μg/ml furanone 56", "value": "greatly reduced"}, {"measurement": "early biofilm formation", "setting": "[3]; day 1, 5 μg/ml furanone 56", "value": "not or only slightly affected"}, {"measurement": "green fluorescence of biofilm cells", "setting": "[3]; day 7, 5 μg/ml furanone 56", "value": "far less green fluorescence"}, {"measurement": "average biofilm thickness", "setting": "[3]; day 7, 5 μg/ml furanone 56 (untreated 61±6 μm)", "value": "23±4", "unit": "μm"}, {"measurement": "biofilm maturation", "setting": "[3]; wild type biofilm grown in the presence of furanone", "value": "failed to mature"}]}]}
